Experimental data reported in PMC5444705 (Oncotarget, 2017).
Where two headings read alike, the source gives them in different places.

Tests used:
L02 cells = assay: MTT assay, L02; format: cell-based; conditions: Homo sapiens
Description: (§1) HepG2, Hep3B, Huh7 or L02 cells were seeded in 96-well plates at a density of 5 × 10^3 cells per well. […] After 24 and 48 h of co-incubation, used media were removed and cells were washed twice with PBS. Fresh medium containing 20 μl of MTT ([…]) was added in and cells were cultured for an additional 4 h at 37°C in a 5% CO2incubator. After that, media were removed and 200 μl of DMSO was added in. The optical density value was determined by the microplate reader (Multiskan MK3, Thermo Fisher Scientific, Atlanta, GA, USA) at 492 nm.

HepG2 xenograft tumor = assay: Anti-tumor efficacy in HepG2 xenograft tumor mouse model; format: in vivo, Balb/C nude mice; conditions: tail vein injection, 4 mg/kg (WCN-21), 25th day after injection
Description: Tumor volume and mouse body weights were recorded during drug administration period. The mice were sacrificed at 25th day after the injection and tumors were collected for histology examination.
(§2) For the efficacy study, 4 × 10^6 HepG2 cells were injected in the front armpit of the Balb/C nude mice. […] The tumor sizes were measured every other day and any death of the mice was recorded. […] TUNEL, Ki67 and hematoxylin and eosin (H&E) staining were performed by using the resected tumor tissue from mice for efficacy study. The tissue sections were examined and photographed with a microscope (Olympus SZX12, Japan) connected to a PC.

HepG2 cells = assay: MTT assay, HepG2; format: cell-based; conditions: Homo sapiens
Description: as §1

[1] = mouse, in vivo, 4 mg/kg
Description: as §2, with “To determine the toxicity of WND and WNP, we collected tissues from the mice used in efficacy study for histological analysis. […] For” for “For”

Hep3B cells = assay: MTT assay, Hep3B; format: cell-based; conditions: Homo sapiens
Description: as §1

Huh7 cells = assay: MTT assay, Huh7; format: cell-based; conditions: Homo sapiens
Description: as §1

**Q.** For `CC[C@@]1(O)C(=O)OCc2c1cc1n(c2=O)Cc2cc3c(CN(C)C)c(O)ccc3nc2-1` [Topotecan], which IC50 (L02 cells; L02, 24 or 48 h, time not specified, read-out: IC50 in L02 cells) is on record?
**A.** > 500 nM

**Q.** And the IC50 (L02 cells; L02, 24 h, MTT, read-out: IC50)?
**A.** > 500 nM

**Q.** What about the IC50 (L02 cells; L02, 48 h, MTT, read-out: IC50) of the same molecule?
**A.** > 500 nM

**Q.** And the “Tumor size at 25th day” value (HepG2 xenograft tumor)?
**A.** 837 mm^3

**Q.** What about the IC50 (HepG2 cells; HepG2, 24 h) of the same molecule?
**A.** 1590 ± 20.6 nM

**Q.** What about the IC50 (HepG2 cells; HepG2, 48 h) of the same molecule?
**A.** 285 ± 9 nM

**Q.** And the Body weight change [1]?
**A.** significant body weight loss

**Q.** What about the “Histological analysis of hearts, livers, spleens, lungs and kidneys” value [1] of the same molecule?
**A.** myocardial fiber fracture and cardiocytes necrosis in hearts, inflammatory infiltration in livers, atrophied white pulp in spleens and disorganization of renal corpuscles in kidneys

**Q.** What about the IC50 (Hep3B cells; 24 h) of the same molecule?
**A.** 462 ± 20 nM

**Q.** What about the IC50 (Hep3B cells; 48 h) of the same molecule?
**A.** 112 ± 2.4 nM

**Q.** And the IC50 (Huh7 cells; Huh 7, 24 h)?
**A.** 500 ± 69 nM

**Q.** And the IC50 (Huh7 cells; Huh 7, 48 h)?
**A.** 117 ± 48 nM
